According to patent publication US20250195521A1 (Revolution Medicines, Inc., priority 2020, published 2025):

Experiments:
Assay type in all cases: cell-based, human
NCI-H358 (K-Ras G12C) = test: CellTiter-Glo cell viability assay, H358; details: Homo sapiens, NCI-H358, 120 h, read-out: H358 Cell Viability IC50, K-Ras G12C, 5-day treatment
Description: (§1) Note—The following protocol describes a procedure for monitoring cell viability of K-Ras mutant cancer cell lines in response to a compound of the invention. Other RAS isoforms may be employed, though the number of cells to be seeded will vary based on cell line used.
(§2) Test compounds (132.5 nL) were directly dispensed into the assay plates containing cells. […] On day 5, assay plates and their contents were equilibrated to room temperature for approximately 30 minutes. […] Luminescence was measured using the PerkinElmer Enspire. Data were normalized by the following: (Sample signal/Avg. DMSO)*100. The data were fit using a four-parameter logistic fit.

AsPC-1 (K-Ras G12D) [1] = test: CellTiter-Glo cell viability assay, AsPC-1; details: Homo sapiens, ASPC1, 120 h, read-out: AsPC-1 Cell Viability IC50
Description: as §1, §2

AsPC-1 (K-Ras G12D) [2] = test: Potency assay: pERK; details: Homo sapiens, ASPC1, read-out: pERK EC50
Description: The purpose of this assay is to measure the ability of test compounds to inhibit K-Ras in cells. […] This procedure measures a decrease in cellular pERK in response to test compounds. The procedure described below in NCI-H358 cells is applicable to K-Ras G12C.
NCI-H358 cells were grown and maintained using media and procedures recommended by the ATCC. On the day prior to compound addition, cells were plated in 384-well cell culture plates (40 μl/well) and grown overnight in a 37° C., 5% CO2 incubator. Test compounds were prepared in 10, 3-fold dilutions in DMSO, with a high concentration of 10 mM. On the day of assay, 40 nL of test compound was added to each well of cell culture plate using an Echo550 liquid handler (LabCyte®). Concentrations of test compound were tested in duplicate. After compound addition, cells were incubated 4 hours at 37° C., 5% CO2. Following incubation, culture medium was removed and cells were washed once with phosphate buffered saline.
In some experiments, cellular pERK level was determined using the AlphaLISA SureFire Ultra p-ERK1/2 Assay Kit (PerkinElmer). Cells were lysed in 25 μL lysis buffer, with shaking at 600 RPM at room temperature. Lysate (10 μL) was transferred to a 384-well Opti-plate (PerkinElmer) and 5 μL acceptor mix was added. After a 2-hour incubation in the dark, 5 μL donor mix was added, plate was sealed, and incubated 2 hours at room temperature. Signal was read on an Envision plate reader (PerkinElmer) using standard AlphaLISA settings. Analysis of raw data was carried out in Excel (Microsoft) and Prism (GraphPad). Signal was plotted vs. the decadal logarithm of compound concentration, and IC50 was determined by fitting a 4-parameter sigmoidal concentration response model.
In other experiments, cellular pERK was determined by In-Cell Western. Following compound treatment, cells were washed twice with 200 μL tris buffered saline (TBS) and fixed for 15 minutes with 150 μL 4% paraformaldehyde in TBS. Fixed cells were washed 4 times for 5 minutes with TBS containing 0.1% Triton X-100 (TBST) and then blocked with 100 μL Odyssey blocking buffer (LI-COR) for 60 minutes at room temperature. Primary antibody (PERK, CST-4370, Cell Signaling Technology) was diluted 1:200 in blocking buffer, and 50 μL was added to each well and incubated overnight at 4° C. Cells were washed 4 times for 5 minutes with TBST. Secondary antibody (IR-800CW rabbit, LI-COR, diluted 1:800) and DNA stain DRAQ5 (LI-COR, diluted 1:2000) were added and incubated 1-2 hours at room temperature. Cells were washed 4 times for 5 minutes with TBST. Plates were scanned on a Li—COR Odyssey CLx Imager. Analysis of raw data was carried out in Excel (Microsoft) and Prism (GraphPad). Signal was plotted vs. the decadal logarithm of compound concentration, and IC50 was determined by fitting a 4-parameter sigmoidal concentration response model.

Compound | IC50 (NCI-H358 (K-Ras G12C)) | IC50 (AsPC-1 (K-Ras G12D) [1]) | EC50 (AsPC-1 (K-Ras G12D) [2])
CCn1c(-c2cnccc2COC)c2c3cc(ccc31)-c1cc(O)cc(c1)C[C@H](NC(=O)[C@H](C(C)C)N(C)C(=O)CN(C)C(=O)[C@H]1CN1)C(=O)N1CCC[C@H](N1)C(=O)OCC(C)(C)C2 [Example 7, (2R)—N-(2-(((2S)-1-(((6^3S,4S)-1^1-ethyl-25-hydroxy-1^2-(4-(methoxymethyl)pyridin-3-yl)-10,10-dimethyl-5,7-dioxo-6^1,6^2,6^3,6^4,6^5,6^6-hexahydro-1^1H-8-oxa-1 (5,3)-indola-6 (1,3)-pyridazina-2 (1,3)-benzenacycloundecaphane-4-yl)amino)-3-methyl-1-oxobutan-2-yl) (methyl)amino)-2-oxoethyl)-N-methylaziridine-2-carboxamide] | 0.01 to 0.1 µM | 0.1 to 1 µM | < 5 µM
CCn1c(-c2cnccc2COC)c2c3cc(ccc31)-c1cc(O)cc(c1)C[C@H](NC(=O)[C@H](C(C)C)N(C)C(=O)CN(C)C(=O)[C@H]1CN1Cc1ccccc1)C(=O)N1CCC[C@H](N1)C(=O)OCC(C)(C)C2 (some centres unmarked) [Example 9] | 0.01 to 0.1 µM | 1 to 10 µM | < 5 µM
CCn1c(-c2cnccc2COC)c2c3cc(ccc31)-c1cc(O)cc(c1)C[C@H](NC(=O)[C@H](C(C)C)N(C)C(=O)CN(C)C(=O)C1CN1)C(=O)N1CCC[C@H](N1)C(=O)OCC(C)(C)C2 (some centres unmarked) [Example 33] | 0.01 to 0.1 µM | – | < 5 µM
CCn1c(-c2cccnc2[C@H](C)OC)c2c3cc(ccc31)-c1cc(O)cc(c1)C[C@H](NC(=O)[C@H](C(C)C)N(C)C(=O)[C@@H](C)N(C)C(=O)[C@H]1CN1)C(=O)N1CCC[C@H](N1)C(=O)OCC(C)(C)C2 [Example 114] | – | 1 to 10 µM | < 5 µM
CCn1c(-c2cccnc2[C@H](C)OC)c2c3cc(ccc31)-c1cc(O)cc(c1)C[C@H](NC(=O)[C@H](C(C)C)N(C)C(=O)CN(C)C(=O)[C@H]1N[C@H]1C1CC1)C(=O)N1CCC[C@H](N1)C(=O)OCC(C)(C)C2 [Example 134] | – | 1 to 10 µM | < 5 µM
CCn1c(-c2cccnc2[C@H](C)OC)c2c3cc(ccc31)-c1cc(O)cc(c1)C[C@H](NC(=O)[C@H](C(C)C)N(C)C(=O)CNC(=O)[C@H]1CN1)C(=O)N1CCC[C@H](N1)C(=O)OCC(C)(C)C2 [Example 140] | – | 1 to 10 µM | < 5 µM
CCn1c(-c2cccnc2[C@H](C)OC)c2c3cc(ccc31)-c1cc(O)cc(c1)C[C@H](NC(=O)[C@H](C(C)C)N(C)C(=O)CNC(=O)[C@@H]1CN1)C(=O)N1CCC[C@H](N1)C(=O)OCC(C)(C)C2 [Example 147] | – | 1 to 10 µM | < 5 µM
CCn1c(-c2cccnc2[C@H](C)OC)c2c3cc(ccc31)-c1cc(O)cc(c1)C[C@H](NC(=O)[C@H](C(C)C)N(C)C(=O)[C@H]1CCCN1C(=O)[C@@H]1CN1)C(=O)N1CCC[C@H](N1)C(=O)OCC(C)(C)C2 [Example 151] | – | 1 to 10 µM | < 5 µM
CCn1c(-c2cccnc2[C@H](C)OC)c2c3cc(ccc31)-c1cc(O)cc(c1)C[C@H](NC(=O)[C@H](C(C)C)N(C)C(=O)[C@H]1CCCN1C(=O)[C@H]1CN1)C(=O)N1CCC[C@H](N1)C(=O)OCC(C)(C)C2 [Example 152] | – | 1 to 10 µM | < 5 µM
CCn1c(-c2cccnc2[C@H](C)OC)c2c3cc(ccc31)-c1cc(O)cc(c1)C[C@H](NC(=O)[C@H](C(C)C)N(C)C(=O)[C@H]1CC[C@@H](C)N1C(=O)[C@@H]1CN1)C(=O)N1CCC[C@H](N1)C(=O)OCC(C)(C)C2 [Example 153] | – | 1 to 10 µM | < 5 µM
CCn1c(-c2cccnc2[C@H](C)OC)c2c3cc(ccc31)-c1cc(O)cc(c1)C[C@H](NC(=O)[C@H](C(C)C)N(C)C(=O)[C@H]1CC[C@@H](C)N1C(=O)[C@H]1CN1)C(=O)N1CCC[C@H](N1)C(=O)OCC(C)(C)C2 [Example 154] | – | 1 to 10 µM | < 5 µM
CCn1c(-c2cccnc2[C@H](C)OC)c2c3cc(ccc31)-c1cc(O)cc(c1)C[C@H](NC(=O)[C@H](C(C)C)N(C)C(=O)CN(C)C(=O)[C@H]1CN1CCO)C(=O)N1CCC[C@H](N1)C(=O)OCC(C)(C)C2 (some centres unmarked) [Example 161] | – | 1 to 10 µM | < 5 µM
CCn1c(-c2cccnc2[C@H](C)OC)c2c3cc(ccc31)-c1cc(O)cc(c1)C[C@H](NC(=O)[C@H](C(C)C)N(C)C(=O)CN(C)C(=O)[C@@H]1CN1CCO)C(=O)N1CCC[C@H](N1)C(=O)OCC(C)(C)C2 (some centres unmarked) [Example 162] | – | 1 to 10 µM | < 5 µM
CCn1c(-c2cccnc2[C@H](C)OC)c2c3cc(ccc31)-c1cc(O)cc(c1)C[C@H](NC(=O)[C@H](C(C)C)N(C)C(=O)CN(C)C(=O)[C@H]1CN1CCCN1CCCC1=O)C(=O)N1CCC[C@H](N1)C(=O)OCC(C)(C)C2 (stereo partly drawn) [Example 268, (2R)—N-(2-(((2S)-1-(((6^3S,4S)-1^1-ethyl-25-hydroxy-1^2-(2-((S)-1-methoxyethyl)pyridin-3-yl)-10,10-dimethyl-5,7-dioxo-6^1,6^2,6^3,6^4,6^5,6^6-hexahydro-1^1H-8-oxa-1 (5,3)-indola-6 (1,3)-pyridazina-2 (1,3)-benzenacycloundecaphane-4-yl)amino)-3-methyl-1-oxobutan-2-yl) (methyl)amino)-2-oxoethyl)-N-methyl-1-(3-(2-oxopyrrolidin-1-yl)propyl) aziridine-2-carboxamide] | – | 1 to 10 µM | < 5 µM
CCn1c(-c2cccnc2[C@H](C)OC)c2c3cc(ccc31)-c1cc(O)cc(c1)C[C@H](NC(=O)[C@H](C(C)C)N(C)C(=O)CN(C)C(=O)[C@@H]1CN1CC(=O)N(C)C)C(=O)N1CCC[C@H](N1)C(=O)OCC(C)(C)C2 (some centres unmarked) [Example 271] | – | > 10 µM | < 5 µM
CCn1c(-c2cccnc2[C@H](C)OC)c2c3cc(ccc31)-c1cc(O)cc(c1)C[C@H](NC(=O)[C@H](C(C)C)N(C)C(=O)CN(C)C(=O)[C@H]1CN1CCCN1CCOC1=O)C(=O)N1CCC[C@H](N1)C(=O)OCC(C)(C)C2 (some centres unmarked) [Example 272] | – | 1 to 10 µM | < 5 µM
CCn1c(-c2cccnc2[C@H](C)OC)c2c3cc(ccc31)-c1cc(O)cc(c1)C[C@H](NC(=O)[C@H](C(C)C)N(C)C(=O)CN(C)C(=O)[C@H]1CN1C1COC1)C(=O)N1CCC[C@H](N1)C(=O)OCC(C)(C)C2 (some centres unmarked) [Example 275] | – | 1 to 10 µM | < 5 µM
CCn1c(-c2cccnc2[C@H](C)OC)c2c3cc(ccc31)-c1cc(O)cc(c1)C[C@H](NC(=O)[C@H](C(C)C)N(C)C(=O)CN(C)C(=O)[C@@H]1CN1CC1COC1)C(=O)N1CCC[C@H](N1)C(=O)OCC(C)(C)C2 (some centres unmarked) [Example 278] | – | 1 to 10 µM | < 5 µM
CCn1c(-c2cccnc2[C@H](C)OC)c2c3cc(ccc31)-c1cc(O)cc(c1)C[C@H](NC(=O)[C@H](C(C)C)N(C)C(=O)CN(C)C(=O)[C@@H]1N[C@@H]1C1COC1)C(=O)N1CCC[C@H](N1)C(=O)OCC(C)(C)C2 [Example 281] | – | 0.1 to 1 µM | < 5 µM
CCn1c(-c2cccnc2[C@H](C)OC)c2c3cc(ccc31)-c1cc(O)cc(c1)C[C@H](NC(=O)[C@H](C(C)C)N(C)C(=O)CN(C)C(=O)[C@H]1N[C@H]1C1COC1)C(=O)N1CCC[C@H](N1)C(=O)OCC(C)(C)C2 [Example 282] | – | 1 to 10 µM | < 5 µM
CCn1c(-c2cccnc2[C@H](C)OC)c2c3cc(ccc31)-c1cc(O)cc(c1)C[C@H](NC(=O)[C@H](C(C)C)N(C)C(=O)CN(C)C(=O)[C@H]1N[C@@H]1C1COC1)C(=O)N1CCC[C@H](N1)C(=O)OCC(C)(C)C2 [Example 284] | – | 1 to 10 µM | < 5 µM
